This passage reports inhibition results from ChEMBL document CHEMBL1135291, “Novel matrix metallo-proteinase (MMP-2) phosphonoboronate inhibitors” (Bioorg Med Chem Lett, 2002).

The target of this test is 72 kDa type IV collagenase (Homo sapiens) (UniProt P08253). Briefly: Inhibition of Matrix metalloprotease-2 at 50 uM.
72 kDa type IV collagenase (Homo sapiens), sequence (P08253 110-660 limits assumed): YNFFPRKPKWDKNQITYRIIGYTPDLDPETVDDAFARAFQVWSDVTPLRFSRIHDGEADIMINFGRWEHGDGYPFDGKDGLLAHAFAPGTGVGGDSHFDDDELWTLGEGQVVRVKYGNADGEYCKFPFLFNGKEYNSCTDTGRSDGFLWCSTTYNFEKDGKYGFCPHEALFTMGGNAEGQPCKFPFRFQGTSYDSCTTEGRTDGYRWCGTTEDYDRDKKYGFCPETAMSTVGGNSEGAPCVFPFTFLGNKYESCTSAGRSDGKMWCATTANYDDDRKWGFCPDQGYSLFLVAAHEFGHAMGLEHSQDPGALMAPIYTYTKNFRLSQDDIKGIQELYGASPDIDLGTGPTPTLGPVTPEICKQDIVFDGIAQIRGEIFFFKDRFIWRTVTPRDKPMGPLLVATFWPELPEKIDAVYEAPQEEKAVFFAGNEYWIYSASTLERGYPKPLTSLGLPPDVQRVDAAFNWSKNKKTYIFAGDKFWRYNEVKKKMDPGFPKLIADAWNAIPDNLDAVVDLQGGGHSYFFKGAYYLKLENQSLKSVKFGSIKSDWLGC

As a reminder, the inhibition is the relative decrease from the control value, in per cent. `CC1(C)OB(C(CCCCl)P(=O)(O)O)OC1(C)C` (configuration not stated): the inhibition came to 55%.
`CC1(C)OB(/C=C/CP(=O)(O)O)OC1(C)C` yielded an inhibition of 75%.
`O=P(O)(O)CB(O)O` gave an inhibition of 0%.
With `CC1(C)OB(C(Cc2ccccc2)P(=O)(O)O)OC1(C)C` (configuration not stated) the figure was 40%; with `CCCCCC(B1OC(C)(C)C(C)(C)O1)P(=O)(O)O` (configuration not stated), 50%.
Compound `COP(=O)(CC1OC(C)(C)C(C)(C)O1)OC` had an inhibition of 0%.
The same measure for `CC1(C)OB(CP(=O)(O)O)OC1(C)C`: 50%.
